# Data published in patent publication US9878985B2, “Benzocyclobutane(thio) carboxamides” (BAYER CROPSCIENCE AKTIENGESELLSCHAFT, priority 2013, dated 2018).
# Experiment: Log P by HPLC on reversed phase columns (EEC directive 79/831 Annex V.A8)
# Assay type: physicochemical
# Conditions: Table 1; method [a]: LC-UV, acidic range, 0.1% formic acid in water and acetonitrile
# Procedure: Measurement of Log P values was performed according to EEC directive 79/831 Annex V.A8 by HPLC (High Performance Liquid Chromatography) on reversed phase columns with the following method: • [^a] Log P value is determined by measurement of LC-UV, in an acidic range, with 0.1% formic acid in water and acetonitrile as eluent (linear gradient from 10% acetonitrile to 95% acetonitrile). Calibration was done with straight-chain alkan2-ones (with 3 to 16 carbon atoms) with known Log P values (measurement of Log P values using retention times with linear interpolation between successive alkanones). Lambda-max-values were determined using UV-spectra from 200 nm to 400 nm and the peak values of the chromatographic signals.
row,SMILES,LogP
1,Cn1cc(C(=O)Nc2cccc3c2CC3c2ccccc2)c(C(F)F)n1 (centres unmarked) [Example I-01],3.20^[a]
2,Cn1nc(C(F)F)c(C(=O)Nc2cccc3c2CC32CCCC2)c1F [Example I-02],3.90[a]
3,Cn1cc(C(=O)Nc2cccc3c2CC32CCCC2)c(C(F)F)n1 [Example I-03],3.59^[a]
4,CCC1(CC)Cc2c(NC(=O)c3c(C(F)F)nn(C)c3Cl)cccc21 [Example I-04],4.36^[a]
5,CCC1(C)Cc2c(NC(=O)c3cccnc3C(F)F)cccc21 (centres unmarked) [Example I-05],3.31^[a]
6,CC(C)C1Cc2c(NC(=O)c3cccnc3C(F)F)cccc21 (centres unmarked) [Example I-06],3.39^[a]
7,Cn1nc(C(F)F)c(C(=O)Nc2cccc3c2CC32CCCCC2)c1Cl [Example I-07],4.56^[a]
8,Cn1cc(C(=O)Nc2cccc3c2CC32CCCCC2)c(C(F)F)n1 [Example I-08],3.94^[a]
9,O=C(Nc1cccc2c1CC21CCCC1)c1cccnc1C(F)F [Example I-09],3.46^[a]
10,Cc1nn(C)c(F)c1C(=O)Nc1cccc2c1CC21CCCCC1 [Example I-10],3.87^[a]
11,Cn1nc(C(F)F)c(C(=O)Nc2cccc3c2CC3c2ccccc2)c1Cl (centres unmarked) [Example I-11],3.71^[a]
12,CCC1(C)Cc2c(NC(=O)c3c(C(F)F)nn(C)c3Cl)cccc21 (centres unmarked) [Example I-12],3.96^[a]
13,CCC1(C)Cc2c(NC(=O)c3cn(C)nc3C(F)F)cccc21 (centres unmarked) [Example I-13],3.44^[a]
14,CCC1(CC)Cc2c(NC(=O)c3c(C(F)F)nn(C)c3F)cccc21 [Example I-14],4.11^[a]
15,CC1Cc2c(NC(=O)c3c(C(F)F)nn(C)c3F)cccc21 (centres unmarked) [Example I-15],3.02^[a]
16,CC(C)C1Cc2c(NC(=O)c3c(C(F)F)nn(C)c3Cl)cccc21 (centres unmarked) [Example I-16],4.06^[a]
17,O=C(Nc1cccc2c1CC21CCCCC1)c1cccnc1C(F)F [Example I-17],3.80^[a]
18,Cn1nc(C(F)F)c(C(=O)Nc2cccc3c2CC32CCCCC2)c1F [Example I-18],4.31^[a]
19,O=C(Nc1cccc2c1CC2c1ccccc1)c1cccnc1C(F)F (centres unmarked) [Example I-19],3.06^[a]
20,CC(C)C1Cc2c(NC(=O)c3cn(C)nc3C(F)F)cccc21 (centres unmarked) [Example I-20],3.50^[a]
21,Cn1nc(C(F)F)c(C(=O)Nc2cccc3c2CC32CCCC2)c1Cl [Example I-21],4.14^[a]

# Same assay, conditions: Table 2 (amines III-a); method [a]: LC-UV, acidic range, 0.1% formic acid in water and acetonitrile
row,SMILES,LogP
1,Nc1cccc2c1CC21CCCC1 [III-a-1],2.03^[a]
2,CCC1(CC)Cc2c(N)cccc21 [III-a-2],2.32^[a]
3,CC1Cc2c(N)cccc21 (centres unmarked) [III-a-3],0.87^[a]
4,CC(C)C1Cc2c(N)cccc21 (centres unmarked) [III-a-4],1.90^[a]
5,CC1(C)Cc2c(N)cccc21 [III-a-5],1.36^[a]
6,CCC1(C)Cc2c(N)cccc21 (centres unmarked) [III-a-6],1.82^[a]
7,Nc1cccc2c1CC21CCCCC1 [III-a-7],2.37^[a]
8,Nc1cccc2c1CC2c1ccccc1 (centres unmarked) [III-a-8],2.20^[a]
